Reference: patent publication US8609659B2, “Substituted 3,8-diazabicyclo[3.2.1]octane compounds” (Neuroscienze Pharmaness S.C.A.R.L., priority 2009, dated 2013)
Where two headings read alike, the source gives them in different places.

Assays:
μ opioidergic receptors = molecular target: T1, μ opioidergic receptors (Mus musculus, UniProt P42866); experiment: Radioreceptorial binding, μ opioidergic receptors ([3H]-DAMGO, mouse brain membranes); conditions: 1 nM [3H]-DAMGO, CD1 mouse brain membranes, 25° C., 60 minutes
T1 construct: from tissue; host or cells: CD1 mouse brain (excluding cerebellum) membranes
T1 sequence (P42866 whole entry): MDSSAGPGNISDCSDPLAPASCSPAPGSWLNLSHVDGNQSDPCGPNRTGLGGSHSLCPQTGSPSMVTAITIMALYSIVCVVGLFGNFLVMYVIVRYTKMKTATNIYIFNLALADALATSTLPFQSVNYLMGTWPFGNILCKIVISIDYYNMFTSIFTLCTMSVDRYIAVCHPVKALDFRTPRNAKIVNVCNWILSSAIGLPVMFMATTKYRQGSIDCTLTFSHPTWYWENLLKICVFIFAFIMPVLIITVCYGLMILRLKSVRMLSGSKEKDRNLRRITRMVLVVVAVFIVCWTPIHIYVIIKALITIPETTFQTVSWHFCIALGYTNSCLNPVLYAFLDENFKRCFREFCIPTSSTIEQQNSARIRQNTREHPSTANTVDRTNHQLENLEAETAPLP

δ opioidergic receptors [1] = molecular target: T2, δ opioidergic receptors (Mus musculus, UniProt P32300); experiment: Radioreceptorial binding, δ opioidergic receptors ([3H]-DPDPE, mouse brain membranes); conditions: 1 nM [3H]-DPDPE, CD1 mouse brain membranes, 25° C., 60 minutes
T2 construct: from tissue; host or cells: CD1 mouse vas deferens segments (isolated organ)
T2 sequence (P32300 whole entry): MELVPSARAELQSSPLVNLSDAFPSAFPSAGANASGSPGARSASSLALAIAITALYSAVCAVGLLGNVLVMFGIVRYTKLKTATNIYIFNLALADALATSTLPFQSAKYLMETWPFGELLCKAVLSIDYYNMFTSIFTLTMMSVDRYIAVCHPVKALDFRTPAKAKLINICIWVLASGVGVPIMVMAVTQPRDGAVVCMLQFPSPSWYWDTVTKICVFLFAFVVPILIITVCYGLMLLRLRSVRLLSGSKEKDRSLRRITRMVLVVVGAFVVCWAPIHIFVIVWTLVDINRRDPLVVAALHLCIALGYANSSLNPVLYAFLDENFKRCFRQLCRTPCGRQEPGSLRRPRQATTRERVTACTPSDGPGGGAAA

δ opioidergic receptors [2] = molecular target: T2, δ opioidergic receptors; experiment: Ex-vivo model, isolated organ: electrically induced contractions of mouse vas deferens; conditions: for inhibition: read-out: % contraction inhibition after addition of ICI 17.4864; for % contraction inhibition: no antagonist, average of 7 experiments; for activity towards the delta opioid receptors: inhibition of contractions antagonized by ICI 17.4864 or Naltrindol
Description: Said effect is antagonized by selective antagonists of the delta opioid receptors, for example the compounds ICI 17.4864 and Naltrindol.
For evaluating the activity of the compounds of the invention on the delta opioid receptors, the compounds respectively obtained in Examples 6.1 and 6.9 were subjected to tests carried out on the basis of the method described by E. J. Bilsky et al. (J.P.E.T., 1995 April; 273 (1):359-366). The experiments were carried out on samples of vas deferent segments taken from CD1 mice (25-30 grams) immediately after sacrifice. After the explant, the vas deferent segments were transferred in a Petri dish containing a Krebs oxygenated solution (118.2 mM NaCl, 4.75 mM KCl, 1.19 mM KH2PO4, 25.0 mM NaHCO3, 11.0 mM glucose, and 2.54 mM CaCl2) in order to proceed to the cleaning of the samples and their subsequent dissection in segments. Segments of vas deferens were so obtained having a length of 1.0-1.2 cm. They were thus immersed in tubs containing 10 ml of an oxygenated Krebs solution (95% O2 and 5% CO2) and kept at a temperature of 37° C. One end of the vas deferens segment was attached to a fixed support, at the tub bottom, while the other end was connected to an isometric force transducer (WPI Fort10, Biological Instruments, Besozzo, Italy) for the registration of the contractions induced by electric stimuli. The samples were then allowed to equilibrate for 60 minutes, changing the Krebs solution every 15 minutes. The samples were then subjected to treatment cycles wherein the electrical stimulation lasted 3 minutes, with an interval of 15 minutes before the following stimulation. The isometric contractions were evoked with sequences of 3 pulses (sequence frequency 0.1 Hz; pulse duration 2 ms) by means of platinum electrodes placed at the sides of the samples. The electrical stimuli were generated by a Grass S88K stimulator and amplified (multiplexing pulse booster 316S; Ugo Basile, Comerio, Italy). The musculature contractions of the vas deferens were monitored by a computer, recorded and analyzed by an analysis system (PowerLab 400). The compounds of the invention were added to the vas deferens in cumulative doses, in the absence or in the presence of one of the following antagonists of the delta opioid receptors: ICI 17.4864 and Naltrindol.
The effect of the tested compounds on the contractions of vas deferens musculature was expressed in percent, calculated by referring the amplitude of the contractions induced by the electrical stimulations after each addition of the test compound to the amplitude of the contractions obtained in the absence of the same compound (100%).
The results obtained with the compounds of Examples 6.1 and 6.9 are reported, respectively, in Table 2 and in Table 3. The results are an average of the data obtained in seven different experiments.

[3] = compound 10^−6 moles/litre + NTI 5 × 10^−8 M
[4] = compound 10^−7 moles/litre + NTI 5 × 10^−8 M
[5] = compound 10^−8 moles/litre + NTI 5 × 10^−8 M
[6] = compound 10^−9 moles/litre + NTI 5 × 10^−8 M
[7] = compound 10^−10 moles/litre + NTI 5 × 10^−8 M
[8] = compound 10^−11 moles/litre + NTI 5 × 10^−8 M

| SMILES | Ki (μ opioidergic receptors) [nM] | Ki (δ opioidergic receptors [1]) [nM] | % contraction inhibition after addition of Naltrindol NTI (δ opioidergic receptors [2]; [3]) [%] | % contraction inhibition (δ opioidergic receptors [2]; compound 10^−6 moles/litre) [%] | % contraction inhibition after addition of Naltrindol NTI (δ opioidergic receptors [2]; [4]) [%] | % contraction inhibition (δ opioidergic receptors [2]; compound 10^−7 moles/litre) [%] | % contraction inhibition after addition of Naltrindol NTI (δ opioidergic receptors [2]; [5]) [%] | % contraction inhibition (δ opioidergic receptors [2]; compound 10^−8 moles/litre) [%] | % contraction inhibition after addition of Naltrindol NTI (δ opioidergic receptors [2]; [6]) [%] | % contraction inhibition (δ opioidergic receptors [2]; compound 10^−9 moles/litre) [%] | % contraction inhibition after addition of Naltrindol NTI (δ opioidergic receptors [2]; [7]) [%] | % contraction inhibition (δ opioidergic receptors [2]; compound 10^−10 moles/litre) [%] | % contraction inhibition after addition of Naltrindol NTI (δ opioidergic receptors [2]; [8]) [%] | % contraction inhibition (δ opioidergic receptors [2]; compound 10^−11 moles/litre) [%] | activity towards the delta opioid receptors (δ opioidergic receptors [2]) | further results |
| --- | --- | --- | --- | --- | --- | --- | --- | --- | --- | --- | --- | --- | --- | --- | --- | --- |
| C=CCN1C2CCC1C1CCC2N1C(c1ccc(C(=O)N(CC)CC)cc1)c1cccc(O)c1 (stereo not drawn) [Example 6.9, 4-[(10-allyl-9,10-diazatricyclo[4.2.1.1^2,5]dec-9-yl)-(3-hydroxyphenyl)methyl]-N,N-diethylbenzamide] | 20 ± 0.5 | 0.23 ± 0.03 | 67.5 | 85.0 | 29.0 | 83.0 | 8.9 | 70.0 | 5.2 | 40.0 | 4.5 | 17.0 | 3.0 | 7.5 | agonist activity | inhibition (δ opioidergic receptors [2]; compound 10^−6 moles/litre + ICI 17.4864 2 × 10^−6 M): 52.2%; inhibition (δ opioidergic receptors [2]; compound 10^−7 moles/litre + ICI 17.4864 2 × 10^−6 M): 28.2%; inhibition (δ opioidergic receptors [2]; compound 10^−8 moles/litre + ICI 17.4864 2 × 10^−6 M): 9.5%; inhibition (δ opioidergic receptors [2]; compound 10^−9 moles/litre + ICI 17.4864 2 × 10^−6 M): 4%; inhibition (δ opioidergic receptors [2]; compound 10^−10 moles/litre + ICI 17.4864 2 × 10^−6 M): 2.5%; inhibition (δ opioidergic receptors [2]; compound 10^−11 moles/litre + ICI 17.4864 2 × 10^−6 M): 1.8% |
| C=CCN1C2CCC1C1CCC2N1C(c1ccc(C(=O)N(CC)CC)cc1)c1cccc(OC)c1 (stereo not drawn) [Example 6.1, 4-[(10-allyl-9,10-diazatricyclo[4.2.1.1^2,5]dec-9-yl)-(3-methoxyphenyl)methyl]-N,N-diethylbenzamide] | 1630 ± 186 | 0.203 ± 0.032 | 41.0 | 86.0 | 24.9 | 71.5 | 19.0 | 51.0 | 11.5 | 32.0 | 5.0 | 16.0 | 4.0 | 5.5 | agonist activity | – |
